Patent US12427195B1, “Methods of neoantigen identification” (La Jolla Institute for Immunology, priority 2019, dated 2025)

How the values were obtained:
[1] = system: patient-derived cancer line expressing the HPV E6 protein; test: Dynamic monitoring of killing of patient-derived cancer line; type: cell-based, human
Excerpt: FIG. 16A depicts dynamic monitoring of patient-derived cancer line to assess the capacity of the TCR to specifically kill tumor lines expressing the HPV E6 protein at 10:1 effector to target ratio. […] To assess non-specific (alloreactivity) background killing by the CD8 T cells, the growth of CD8 T cells that were stimulated and expanded but not subjected to CRISPR or LV editing are represented by Curve 3.

[2] = system: E6+HLA-A*02:01+ tumor line (Caski); test: Dynamic monitoring of killing of Caski tumor line; type: cell-based; conditions: Caski cells
Excerpt: FIG. 16B depicts dynamic monitoring of E6^+HLA-A*02:01^+tumor line (Caski) to assess the capacity of the engineered TCR to specifically kill tumor lines expressing the HPV E6 protein at 10:1 effector to target ratio. […] To assess non-specific (alloreactivity) background killing by the CD8 T cells, the growth of CD8 T cells that were stimulated and expanded but NOT subjected to CRISPR or LV editing are represented by Curve 3.

N.N.[Cl][Pt][Cl] [cisplatin]
time to kill tumor line [1]: ≤ 48 h
time to kill tumor line [2]: ≤ 48 h
